From patent EP0326331B1, “Substituted quinolines and cinnolines” (Dow AgroSciences LLC, priority 1988, dated 1989)
Where two headings read alike, the source gives them in different places.

Columns and labels:
Format in all cases: in vivo
[1] = tested on: Cercospora beticola (leaf spot); test: Test 1 greenhouse foliar spray screen, leaf spot on sugar beet; details: disease control rating, foliar spray on sugar beet, 400 ppm (+++ at 100 ppm)
[2] = tested on: southern armyworm (Spodopetra eridania Cramer); test: Mite/insect screen, SAW; details: Spodoptera eridania, read-out: SAW RESULTS %
Summary of the method: (§1)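 Read-out: percent mortality after standard exposure periods. Test solutions were water dilutions of compound dissolved in acetone/alcohol (50:50) with emulsifier blends; leaves were sprayed to runoff on both surfaces and air-dried for one hour before exposure.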

[3] = tested on: melon aphids (Aphis gossypii Glover); test: Mite/insect screen, MA; details: for mortality at 200 ppm: Aphis gossypii, read-out: MA RESULTS %
Summary of the method: as §1

[4] = tested on: Septoria tritici (leaf blotch); test: Test 1 greenhouse foliar spray screen, leaf blotch on wheat; details: disease control rating, foliar spray on wheat, 400 ppm (+++ at 100 ppm)
corn rootworm = test: Mite/insect screen, CRW; details: for mortality at 12 ppm: read-out: CRW RESULTS %
Summary of the method: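 Read-out: % mortality after standard exposure. Formulation: acetone/alcohol (50:50) with emulsifiers at 23 g and 13 g per liter, water-diluted to final test levels.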

[5] = tested on: Pseudoperonospora cubensis (downy mildew); test: Test 1 greenhouse foliar spray screen, downy mildew on squash; details: disease control rating, foliar spray on squash, 400 ppm (+++ at 100 ppm)
[6] = tested on: Puccinia recondita tritici (leaf rust); test: Test 1 greenhouse foliar spray screen, leaf rust on wheat; details: disease control rating, foliar spray on wheat, 400 ppm (+++ at 100 ppm)
[7] = tested on: Erysiphe graminis tritici (powdery mildew); test: Test 1 greenhouse foliar spray screen, powdery mildew on wheat; details: disease control rating, foliar spray on wheat, 400 ppm (+++ at 100 ppm)
[8] = tested on: Twospotted spider mites (Tetranychus urticae Koch); test: Mite/insect screen, SM; details: for mortality at 200 ppm: Tetranychus urticae, read-out: SM RESULTS %
Summary of the method: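 Foliar spray to runoff (10 psi), 1 h drying; aqueous dilutions from acetone/alcohol emulsifier stock. Mortality (%) after standard exposure.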

[9] = tested on: Venturia inaequalis (apple scab); test: Test 1 greenhouse foliar spray screen, apple scab on apple seedling; details: disease control rating, foliar spray on apple seedling, 400 ppm (+++ at 100 ppm)
[10] = tested on: Pyricularia oryzae (rice blast); test: whole plant or invertebrate; details: disease control rating, foliar spray on rice, 400 ppm (+++ at 100 ppm)
[11] = tested on: Botrytis cinerea (gray mold); test: Test 1 greenhouse foliar spray screen, gray mold on grape berries; details: disease control rating, spray on grape berries, 400 ppm (+++ at 100 ppm)
[12] = percent mortality, SAW, SM & MA RATE 200 PPM
[13] = percent mortality, CRW RATE 12.00 PPM

SMILES | LEAF SPOT [1] | mortality at 200 ppm [2, 12] | mortality at 200 ppm [3, 12] | LEAF BLOT [4] | mortality at 12 ppm (corn rootworm; [13]) | DOWN MDEW [5] | LEAF RUST [6] | POWD MDEW [7] | mortality at 200 ppm [8, 12] | APPL SCAB [9] | RICE BLAST [10] | GRAY MOLD [11] | mortality at 200 ppm [2] | mortality at 200 ppm [3] | mortality at 12 ppm (corn rootworm) | mortality at 200 ppm [8] | MA RESULTS % [3, 12] | CRW RESULTS % (corn rootworm; [13]) | SM RESULTS % [8, 12]
Fc1cccc(CCNc2ccnc3c(F)cccc23)c1 [Example 66, 8-fluoro-N-[2-(3-fluorophenyl)ethyl]-4-quinolinamine] | +++ (90-100% control at 100 ppm) | 0% | 0% | + (20-89% control at 400 ppm) | 0% | +++ (90-100% control at 100 ppm) | +++ (90-100% control at 100 ppm) | + (20-89% control at 400 ppm) | 0% | - (0-19% control at 400 ppm) | ++ (90-100% control at 400 ppm) | - (0-19% control at 400 ppm) | – | – | – | – | – | – | –
COc1cc(CCNc2ccnc3ccccc23)cc(OC)c1 [Example 67, N-[2-(3,5-dimethoxyphenyl)ethyl]-4-quinolinamine] | + (20-89% control at 400 ppm) | 0% | 0% | - (0-19% control at 400 ppm) | 0% | ++ (90-100% control at 400 ppm) | + (20-89% control at 400 ppm) | - (0-19% control at 400 ppm) | 0% | - (0-19% control at 400 ppm) | + (20-89% control at 400 ppm) | - (0-19% control at 400 ppm) | – | – | – | – | – | – | –
COc1ccccc1CCNc1ccnc2c(F)cccc12 [Example 68, 8-fluoro-N-[2-(2-methoxyphenyl)ethyl]-4-quinolinamine] | - (0-19% control at 400 ppm) | 0% | 0% | +++ (90-100% control at 100 ppm) | 0% | ++ (90-100% control at 400 ppm) | +++ (90-100% control at 100 ppm) | + (20-89% control at 400 ppm) | 0% | - (0-19% control at 400 ppm) | + (20-89% control at 400 ppm) | - (0-19% control at 400 ppm) | – | – | – | – | – | – | –
Clc1cnc2ccccc2c1NCC(Cl)c1ccccc1 (stereo not drawn) [Example 69, 3-chloro-N-(2-chloro-2-phenylethyl)-4-quinolinamine] | - (0-19% control at 400 ppm) | – | – | - (0-19% control at 400 ppm) | – | +++ (90-100% control at 100 ppm) | + (20-89% control at 400 ppm) | + (20-89% control at 400 ppm) | – | - (0-19% control at 400 ppm) | + (20-89% control at 400 ppm) | - (0-19% control at 400 ppm) | 0% | 0% | 0% | 0% | – | – | –
FC(F)(F)c1cc(C(F)(F)F)c2c(NCCc3ccccc3)ccnc2c1 [Example 70, N-(2-phenylethyl)-5,7-bis-(trifluoromethyl)-4-quinolinamine] | - (0-19% control at 400 ppm) | 0% | 0% | - (0-19% control at 400 ppm) | 0% | - (0-19% control at 400 ppm) | + (20-89% control at 400 ppm) | +++ (90-100% control at 100 ppm) | 0% | - (0-19% control at 400 ppm) | + (20-89% control at 400 ppm) | - (0-19% control at 400 ppm) | – | – | – | – | – | – | –
OCc1cnc2c(F)cccc2c1NCCc1ccccc1 [Example 73, 8-fluoro-4-[(2-phenylethyl)amino]-3-quinolinemethanol] | - (0-19% control at 400 ppm) | 0% | 0% | - (0-19% control at 400 ppm) | 0% | ++ (90-100% control at 400 ppm) | - (0-19% control at 400 ppm) | - (0-19% control at 400 ppm) | 0% | - (0-19% control at 400 ppm) | + (20-89% control at 400 ppm) | - (0-19% control at 400 ppm) | – | – | – | – | – | – | –
Fc1cccc2c(NCCc3ccc(Cl)c(Cl)c3)ccnc12 [Example 75, N-[2-(3,4-dichlorophenyl)ethyl]-8-fluoro-4-quinolinamine] | - (0-19% control at 400 ppm) | 0% | 0% | + (20-89% control at 400 ppm) | 0% | +++ (90-100% control at 100 ppm) | ++ (90-100% control at 400 ppm) | + (20-89% control at 400 ppm) | 0% | - (0-19% control at 400 ppm) | + (20-89% control at 400 ppm) | - (0-19% control at 400 ppm) | – | – | – | – | – | – | –
CC(CNc1ccnc2c(F)cccc12)c1ccccc1 (stereo not drawn) [Example 77, 8-fluoro-N-(2-phenylpropyl)-4-quinolinamine] | - (0-19% control at 400 ppm) | 0% | 0% | - (0-19% control at 400 ppm) | 0% | +++ (90-100% control at 100 ppm) | ++ (90-100% control at 400 ppm) | + (20-89% control at 400 ppm) | 0% | + (20-89% control at 400 ppm) | + (20-89% control at 400 ppm) | - (0-19% control at 400 ppm) | – | – | – | – | – | – | –
Fc1ccc(CCNc2ccnc3c(F)cccc23)cc1 [Example 78, 8-fluoro-N-[2-(4-fluorophenyl)ethyl]-4-quinolinamine] | +++ (90-100% control at 100 ppm) | 20% | 0% | + (20-89% control at 400 ppm) | 0% | +++ (90-100% control at 100 ppm) | +++ (90-100% control at 100 ppm) | + (20-89% control at 400 ppm) | 0% | - (0-19% control at 400 ppm) | ++ (90-100% control at 400 ppm) | - (0-19% control at 400 ppm) | – | – | – | – | 0% | 0% | 0%
